{"source": "paper PMC6269819", "about": "“Evaluation of the Biological Activity of Naturally Occurring 5,8-Dihydroxycoumarin” (Molecules, 2013)", "key": {"[1]": {"system": "Wistar rat bone marrow cells", "test": "Chromosome aberration in vivo assay in rat bone marrow", "description": "Male albino Wistar rats aged 8–10 weeks and having body weight of 200–220 g, were used in the present study. The animals were supplied by the Animal Facility of the Department of Immunology, State Research Institute Center for Innovative Medicine. Ethical approval was given by the Committee of the Lithuanian Animal Care and Use. Prior to the start of the study, the animals were acclimatized for 7 days. They were housed under conditions of constant temperature, humidity and a light/dark cycle of 12 h/12 h with free access to standard commercial pellet diet and drinking water. The animals were randomly distributed into 11 experimental groups of six rats each.\nWe used a mixture of dimethylsulfoxide (DMSO) and sunflower oil (1:2) as the vehicle for 5,8-DHC (5,8-DHC was dissolved in DMSO and adjusted to the desired dose with sunflower oil immediately before administration). For the acute treatment, the animals received single intraperitoneal (i.p.) injections of 10 or 20 mg/kg of 5,8-DHC in 1 mL volume per 100 g body weight (b.w.). The negative control group comprised animals, given a single i.p. injection of vehicle (1 mL/100 g b.w.) and the positive control group, given cyclophosphamide (CP, 30 mg/kg adjusted in 0.5 mL/100 g b.w. in sterile physiological saline). A commercial form of cyclophosphamide was used (‘Endoxan’, ASTA Medica AG, Frankfurt, Germany). Blank controls comprised untreated animals. For the repeated treatment, 5,8-DHC (10 or 20 mg/kg) or vehicle was administered via gavage (1 mL/100 g b.w.) once a day for 3 consecutive days. Animals were sacrificed 24 h or 48 h after the last dose administration. Colchicine was applied i.p. at a dose of 2 mg/kg b.w. in 1 mL volume 90 min before sacrifice. Both femurs were dissected from each animal and used to obtain bone marrow preparations for the analysis of chromosome aberrations and micronucleus.\nBone marrow cells were flushed from the femora with 0.55% potassium chloride hypotonic solution, incubated for 25 min at 37 °C and then centrifuged at 150 × g for 8 min. Cells were fixed in methanol-glacial acetic acid (3:1). Slides were prepared by a flame-drying procedure and then stained with 5% Giemsa stain. Slides were coded and scored blind by the single scorer at a magnification of 1500× (Nikon ECLIPSE E200, Tokyo, Japan). Only well-spread metaphases with 42 ± 1 chromosomes were used for the analysis. The frequencies of CAs were estimated in 100 metaphases per animal. Aberrations were recorded as individual types according to J.R. Savage’s classification but for convenience were grouped as chromatid breaks (ctb), chromatid exchanges (cte), chromosome breaks (csb) and chromosome exchanges (cse). Gaps were counted but not included into statistical analysis."}, "[2]": {"test": "Signs of systemic toxicity and mortality in treated rats"}, "[3]": {"system": "human lymphocytes", "test": "Sister chromatid exchanges and replication index in human lymphocyte cultures in vitro", "format": "cell-based", "description": "Blood samples were taken from two healthy female volunteers (donor A) and (donor B). Whole peripheral blood was grown in HEPES-buffered RPMI 1640 medium supplemented with 12% heat-inactivated newborn calf serum, 7.8 μg/mL phytohemagglutinin P, 50 μg/mL gentamycin, 10 μg/mL 5-bromo-2'-deoxyuridine. All reagents used for the cell culture were purchased from Sigma-Aldrich Chemical Co. (St. Louis, MO, USA). Cell cultures were incubated at 37 °C for 72 h. Treatment with test compounds was carried out 48 h after culture initiation and lasted for the period of 24 h. Dose range of 5,8-DHC (10 to 40 µg/mL) was based on pilot experiments (data not shown). As whole blood cultures display many properties common with the liver microsomal cytochrome P450 system, no external metabolising enzymes were added. 5,8-DHC was dissolved in ethanol and then diluted with RPMI 1640 medium to the desired concentration. Ethanol in a final concentration of 7.5µL/mL was used as a solvent control. […] Working solutions were made just before treatment. Two parallel cultures were used for each concentration of the compound tested. Two cultures were left untreated and served as a blank control. Methyl methanesulfonate (MMS) in a final concentration of 0.02 μL/mL was used as a positive control. The cultures were exposed to colchicine at a final concentration of 0.6 μg/mL for the last 3 h of incubation. The cells were harvested, hypotonically swollen in 0.075 M KCl and fixed in methanol: acetic acid (3:1). Air-dried slides were differentially stained by fluorescence plus Giemsa technique as has been described previously. Briefly, the slides were stained for 10 min. with 10 μg/mL of Hoechst 33258 dye (dissolved in 0.07 M Soerensen’s buffer, pH 6.8). Then the slides were rinsed, mounted with citrate buffer (pH 8.5), covered with cover slips and exposed to UV light (400 W mercury lamp at a distance of 15 cm) for 6–7 min. Slides were then rinsed and stained for 3–4 min. with 5% Giemsa. Cytogenetic analysis was performed on coded slides. No less than 100 first-mitotic division metaphases per culture were analysed for CAs, and no less than 50 second-division metaphases for SCEs.\nCell replicative kinetics were determined by means of a replicative index (RI = [M1 + 2M2 + 3M3]/N, where M1, M2, M3 are the numbers of cells that had undergone one, two or three cycles of replication, and N is a total number of cells scored). 300 cells were scored to determine RI"}}, "note": "Marks after values point to notes of the source that are not given here."}
{"smiles": "O=c1ccc2c(O)ccc(O)c2o1", "note": "[5,8-DHC, 5,8-Dihydroxycoumarin]", "values": [{"measurement": "increase of CAs compared with vehicle controls", "setting": "[1]; all 5,8-DHC treated animals", "result": "No increase of CAs"}, {"measurement": "Aberrant metaphases (%± S.E.M.)", "setting": "[1]; repeated gavage 3 × 10 mg/kg b.w., sacrifice 48 h", "result": "1.17 ± 0.17", "unit": "%"}, {"measurement": "Aberrant metaphases (%± S.E.M.)", "setting": "[1]; repeated gavage 3 × 20 mg/kg b.w., sacrifice 48 h", "result": "2.43 ± 0.37", "unit": "%"}, {"measurement": "Aberrant metaphases (%± S.E.M.)", "setting": "[1]; single i.p. 10 mg/kg b.w., sacrifice 24 h", "result": "2.33 ± 0.49", "unit": "%"}, {"measurement": "Aberrant metaphases (%± S.E.M.)", "setting": "[1]; single i.p. 10 mg/kg b.w., sacrifice 48 h", "result": "1.67 ± 0.56", "unit": "%"}, {"measurement": "Aberrant metaphases (%± S.E.M.)", "setting": "[1]; single i.p. 20 mg/kg b.w., sacrifice 24 h", "result": "1.00 ± 0.36", "unit": "%"}, {"measurement": "Aberrant metaphases (%± S.E.M.)", "setting": "[1]; single i.p. 20 mg/kg b.w., sacrifice 48 h", "result": "2.60 ± 0.68", "unit": "%"}, {"measurement": "signs of systemic toxicity", "setting": "[2]; 20 mg/kg b.w., at 2–3 h after dose administration", "result": "sluggishness was observed in all rats"}, {"measurement": "time to death after administration", "setting": "[2]; i.p. injection 100 mg/kg", "result": "3 to 4", "unit": "h"}, {"measurement": "toxicity and mortality", "setting": "[2]; i.p. injection 100 mg/kg", "result": "sluggishness and death of all treated animals"}, {"measurement": "signs of systemic toxicity", "setting": "[2]; repeated treatment with 10 mg/kg b.w., since second dose administration", "result": "sluggishness"}, {"measurement": "ratio of regression coefficients donor A / donor B", "setting": "[3]", "result": 2.6, "unit": "times"}, {"measurement": "RI ± S.E.M", "setting": "[3]; Donor A, 10 µg/mL", "result": "2.70 ± 0.04"}, {"measurement": "SCE/ cell ± S.E.M.", "setting": "[3]; Donor A, 10 µg/mL", "result": "10.2 ± 0.5", "unit": "SCE/cell"}, {"measurement": "RI ± S.E.M", "setting": "[3]; Donor A, 15 µg/mL", "result": "2.74 ± 0.31"}, {"measurement": "SCE/ cell ± S.E.M.", "setting": "[3]; Donor A, 15 µg/mL", "result": "12.3 ± 0.6 ^b SCE/cell"}, {"measurement": "RI ± S.E.M", "setting": "[3]; Donor A, 20 µg/mL", "result": "2.65 ± 0.04 ^b"}, {"measurement": "SCE/ cell ± S.E.M.", "setting": "[3]; Donor A, 20 µg/mL", "result": "12.7 ± 0.7 ^b SCE/cell"}, {"measurement": "RI ± S.E.M", "setting": "[3]; Donor A, 25 µg/mL", "result": "2.66 ± 0.04 ^b"}, {"measurement": "SCE/ cell ± S.E.M.", "setting": "[3]; Donor A, 25 µg/mL", "result": "13.6 ± 0.6 ^b SCE/cell"}, {"measurement": "RI ± S.E.M", "setting": "[3]; Donor A, 30 µg/mL", "result": "2.55 ± 0.05 ^b"}, {"measurement": "SCE/ cell ± S.E.M.", "setting": "[3]; Donor A, 30 µg/mL", "result": "13.9 ± 0.6 ^b SCE/cell"}, {"measurement": "RI ± S.E.M", "setting": "[3]; Donor A, 35 µg/mL", "result": "2.51 ± 0.05 ^b"}, {"measurement": "SCE/ cell ± S.E.M.", "setting": "[3]; Donor A, 35 µg/mL", "result": "15.0 ± 0.8 ^b SCE/cell"}, {"measurement": "RI ± S.E.M", "setting": "[3]; Donor A, 40 µg/mL", "result": "2.62 ± 0.04 ^b"}, {"measurement": "SCE/ cell ± S.E.M.", "setting": "[3]; Donor A, 40 µg/mL", "result": "19.7 ± 1.5 ^b SCE/cell"}, {"measurement": "RI ± S.E.M", "setting": "[3]; Donor B, 10 µg/mL", "result": "2.22 ± 0.05 ^b"}, {"measurement": "SCE/ cell ± S.E.M.", "setting": "[3]; Donor B, 10 µg/mL", "result": "10.1 ± 0.5", "unit": "SCE/cell"}, {"measurement": "RI ± S.E.M", "setting": "[3]; Donor B, 15 µg/mL", "result": "2.35 ± 0.05"}, {"measurement": "SCE/ cell ± S.E.M.", "setting": "[3]; Donor B, 15 µg/mL", "result": "10.6 ± 0.5", "unit": "SCE/cell"}, {"measurement": "RI ± S.E.M", "setting": "[3]; Donor B, 20 µg/mL", "result": "2.49 ± 0.05"}, {"measurement": "SCE/ cell ± S.E.M.", "setting": "[3]; Donor B, 20 µg/mL", "result": "10.3 ± 0.4", "unit": "SCE/cell"}, {"measurement": "RI ± S.E.M", "setting": "[3]; Donor B, 25 µg/mL", "result": "2.31 ± 0.05 ^b"}, {"measurement": "SCE/ cell ± S.E.M.", "setting": "[3]; Donor B, 25 µg/mL", "result": "9.9 ± 0.5", "unit": "SCE/cell"}, {"measurement": "RI ± S.E.M", "setting": "[3]; Donor B, 30 µg/mL", "result": "2.31 ± 0.06 ^b"}, {"measurement": "SCE/ cell ± S.E.M.", "setting": "[3]; Donor B, 30 µg/mL", "result": "11.8 ± 0.5 ^b SCE/cell"}, {"measurement": "RI ± S.E.M", "setting": "[3]; Donor B, 35 µg/mL", "result": "2.17 ± 0.06 ^b"}, {"measurement": "SCE/ cell ± S.E.M.", "setting": "[3]; Donor B, 35 µg/mL", "result": "11.5 ± 0.6 ^b SCE/cell"}, {"measurement": "RI ± S.E.M", "setting": "[3]; Donor B, 40 µg/mL", "result": "2.07 ± 0.06 ^b"}, {"measurement": "SCE/ cell ± S.E.M.", "setting": "[3]; Donor B, 40 µg/mL", "result": "13.3 ± 0.6 ^b SCE/cell"}, {"measurement": "dose giving statistically significant increase in the frequency of SCEs", "setting": "[3]; donor A", "result": 15, "unit": "µg/mL"}, {"measurement": "regression coefficient of SCE dose-response relationship", "setting": "[3]; donor A", "result": 1.15}, {"measurement": "dose giving statistically significant increase in the frequency of SCEs", "setting": "[3]; donor B", "result": "≥ 30", "unit": "µg/mL"}, {"measurement": "regression coefficient of SCE dose-response relationship", "setting": "[3]; donor B", "result": 0.44}, {"measurement": "concentration consistently inhibiting cell replicative kinetics", "setting": "[3]; lymphocytes of both donors", "result": "higher than 25 μg/mL"}]}
